Measured values reported in ChEMBL document CHEMBL4033618, “Covalently linked kanamycin - Ciprofloxacin hybrid antibiotics as a tool to fight bacterial resistance” (Bioorg Med Chem, 2017).
pIC50: −log10 of the molar value. Converted amounts (≈) assume the structure as drawn.

Legend:
Escherichia coli [1] = assay: Ratio of MIC for aminoglycosides-resistant Escherichia coli BL21 harboring pET11d encode for APH(3')-2b resistance enzyme to MIC for Escherichia coli BL21; assay type: functional
Escherichia coli [2] = assay: Antibacterial activity against kanamycin-resistant Escherichia coli AG100B by double microdilution method; assay type: functional
Escherichia coli [3] = assay: Antibacterial activity against kanamycin-resistant Escherichia coli AG100A by double microdilution method; assay type: functional
Escherichia coli [4] = assay: Antibacterial activity against aminoglycosides-susceptible Escherichia coli R477-100 by double microdilution method; assay type: functional
Escherichia coli [5] = assay: Antibacterial activity against aminoglycosides-susceptible Escherichia coli 25922 by double microdilution method; assay type: functional; conditions: ATCC 25922
Bacillus subtilis = assay: Antibacterial activity against aminoglycosides-susceptible Bacillus subtilis by double microdilution method; assay type: functional
[6] = test system: Staphylococcus epidermidis; assay: Antibacterial activity against aminoglycosides-susceptible Staphylococcus epidermidis by double microdilution method; assay type: functional
Escherichia coli [7] = assay: Antibacterial activity against Escherichia coli BL21 by double microdilution method; assay type: functional
Escherichia coli [8] = assay: Antibacterial activity against aminoglycosides-resistant Escherichia coli BL21 harboring pSF815 encode for bifunctional AAC(6')/APH(2\") resistance enzyme by double microdilution method; assay type: functional
Escherichia coli [9] = assay: Ratio of MIC for aminoglycosides-resistant Escherichia coli BL21 harboring pSF815 encode for bifunctional AAC(6')/APH(2\") resistance enzyme to MIC for Escherichia coli BL21; assay type: functional
Escherichia coli [10] = assay: Antibacterial activity against aminoglycosides-resistant Escherichia coli BL21 harboring pET11d encode for APH(3')-2b resistance enzyme by double microdilution method; assay type: functional
Escherichia coli [11] = assay: Antibacterial activity against aminoglycosides-resistant Escherichia coli BL21 harboring pETSACG1 encode for APH(3')-3a resistance enzyme by double microdilution method; assay type: functional
Escherichia coli [12] = assay: Ratio of MIC for aminoglycosides-resistant Escherichia coli BL21 harboring pETSACG1 encode for APH(3')-3a resistance enzyme to MIC for Escherichia coli BL21; assay type: functional
Escherichia coli [13] = assay: Antibacterial activity against Escherichia coli XL1 blue by double microdilution method; assay type: functional
Escherichia coli [14] = assay: Antibacterial activity against Escherichia coli XL1 blue harboring pET9d encode for APH(3')-1a resistance enzyme by double microdilution method; assay type: functional
Escherichia coli [15] = assay: Ratio of MIC for Escherichia coli XL1 blue harboring pET9d encode for APH(3')-1a resistance enzyme to MIC for Escherichia coli XL1 blue; assay type: functional
Escherichia coli [16] = assay: Inhibition of protein translation in Escherichia coli S30 cell extract using circular DNA with pBESTluc after 60 mins; assay type: functional; conditions: Escherichia coli, 1 h; read-out: IC50
[17] = Inhibition of Escherichia coli DNA gyrase using relaxed pBR322 DNA as substrate by agarose gel electrophorosis method; conditions: read-out: IC50
[18] = Inhibition of Escherichia coli topoisomerase 4 using supercoiled pBR322 DNA as substrate by agarose gel electrophorosis method; conditions: read-out: IC50

SMILES | Ratio (Escherichia coli [1]) | MIC (Escherichia coli [2]) [µg/mL] | MIC (Escherichia coli [3]) [µg/mL] | MIC (Escherichia coli [4]) [µg/mL] | MIC (Escherichia coli [5]) [µg/mL] | MIC (Bacillus subtilis) [µg/mL] | MIC [6] [µg/mL] | MIC (Escherichia coli [7]) [µg/mL] | MIC (Escherichia coli [8]) [µg/mL] | Ratio (Escherichia coli [9]) | MIC (Escherichia coli [10]) [µg/mL] | MIC (Escherichia coli [11]) [µg/mL] | Ratio (Escherichia coli [12]) | MIC (Escherichia coli [13]) [µg/mL] | MIC (Escherichia coli [14]) [µg/mL] | Ratio (Escherichia coli [15]) | pIC50 (Escherichia coli [16]) | pIC50 [17] | pIC50 [18]
NC[C@H]1O[C@H](O[C@H]2[C@H](O)[C@@H](O[C@H]3O[C@H](CO)[C@@H](O)[C@H](N)[C@H]3O)[C@H](NC(=O)CCc3cn(CC(O)CN4CCN(c5cc6c(cc5F)c(=O)c(C(=O)O)cn6C5CC5)CC4)nn3)C[C@@H]2N)[C@H](O)[C@@H](O)[C@@H]1O (stereo partly specified) | 1 | 24 (≈ 24.1 µM) | 1.5 (≈ 1.51 µM) | 12 (≈ 12.1 µM) | 6 (≈ 6.03 µM) | 9 (≈ 9.04 µM) | 36 (≈ 36.2 µM) | 0.2 (≈ 0.201 µM) | 1.5 (≈ 1.51 µM) | 1 | 1.5 (≈ 1.51 µM) | 1.5 (≈ 1.51 µM) | 1 | 24 (≈ 24.1 µM) | 24 (≈ 24.1 µM) | 1 | – | – | –
NC[C@H]1O[C@H](O[C@H]2[C@H](O)[C@@H](O[C@H]3O[C@H](CO)[C@@H](O)[C@H](N)[C@H]3O)[C@H](NCc3cn(CCN4CCN(c5cc6c(cc5F)c(=O)c(C(=O)O)cn6C5CC5)CC4)nn3)C[C@@H]2N)[C@H](O)[C@@H](O)[C@@H]1O | – | – | – | 6 (≈ 6.5 µM) | 3 (≈ 3.25 µM) | 1.5 (≈ 1.63 µM) | 6 (≈ 6.5 µM) | 0.2 (≈ 0.217 µM) | – | – | – | – | – | – | – | – | 5.09 | – | –
NC[C@H]1O[C@H](O[C@H]2[C@H](O)[C@@H](O[C@H]3O[C@H](CO)[C@@H](O)[C@H](N)[C@H]3O)[C@H](NC(=O)CCc3cn(CCOCCN4CCN(c5cc6c(cc5F)c(=O)c(C(=O)O)cn6C5CC5)CC4)nn3)C[C@@H]2N)[C@H](O)[C@@H](O)[C@@H]1O | 1 | 24 (≈ 23.8 µM) | 0.75 (≈ 0.743 µM) | 12 (≈ 11.9 µM) | 6 (≈ 5.95 µM) | 9 (≈ 8.92 µM) | 24 (≈ 23.8 µM) | 0.8 (≈ 0.793 µM) | 0.8 (≈ 0.793 µM) | 1 | 0.8 (≈ 0.793 µM) | 0.8 (≈ 0.793 µM) | 1 | 12 (≈ 11.9 µM) | 12 (≈ 11.9 µM) | 1 | – | – | –
NC[C@H]1O[C@H](O[C@H]2[C@H](O)[C@@H](O[C@H]3O[C@H](CO)[C@@H](O)[C@H](N)[C@H]3O)[C@H](NCc3cn(CCCCCCN4CCN(c5cc6c(cc5F)c(=O)c(C(=O)O)cn6C5CC5)CC4)nn3)C[C@@H]2N)[C@H](O)[C@@H](O)[C@@H]1O | 1 | 24 (≈ 24.5 µM) | 1.5 (≈ 1.53 µM) | 12 (≈ 12.3 µM) | 12 (≈ 12.3 µM) | 6 (≈ 6.13 µM) | 24 (≈ 24.5 µM) | 0.8 (≈ 0.817 µM) | 0.8 (≈ 0.817 µM) | 1 | 0.8 (≈ 0.817 µM) | 0.8 (≈ 0.817 µM) | 1 | 12 (≈ 12.3 µM) | 12 (≈ 12.3 µM) | 1 | 5.19 | – | –
NC[C@H]1O[C@H](O[C@H]2[C@H](O)[C@@H](O[C@H]3O[C@H](CO)[C@@H](O)[C@H](N)[C@H]3O)[C@H](NC(=O)CCc3cn(Cc4ccc(CN5CCN(c6cc7c(cc6F)c(=O)c(C(=O)O)cn7C6CC6)CC5)cc4)nn3)C[C@@H]2N)[C@H](O)[C@@H](O)[C@@H]1O | 2 | 48 (≈ 46.1 µM) | 3 (≈ 2.88 µM) | 36 (≈ 34.6 µM) | 24 (≈ 23.1 µM) | 6 (≈ 5.76 µM) | 18 (≈ 17.3 µM) | 0.8 (≈ 0.768 µM) | 1.5 (≈ 1.44 µM) | 2 | 1.5 (≈ 1.44 µM) | 0.8 (≈ 0.768 µM) | 1 | 24 (≈ 23.1 µM) | 24 (≈ 23.1 µM) | 1 | – | – | –
NC[C@H]1O[C@H](O[C@H]2[C@H](O)[C@@H](O[C@H]3O[C@H](CO)[C@@H](O)[C@H](N)[C@H]3O)[C@H](NC(=O)CCCc3cn(Cc4ccc(CN5CCN(c6cc7c(cc6F)c(=O)c(C(=O)O)cn7C6CC6)CC5)cc4)nn3)C[C@@H]2N)[C@H](O)[C@@H](O)[C@@H]1O | 1 | 24 (≈ 22.7 µM) | 0.75 (≈ 0.711 µM) | 6 (≈ 5.69 µM) | 3 (≈ 2.84 µM) | 3 (≈ 2.84 µM) | 6 (≈ 5.69 µM) | 0.8 (≈ 0.758 µM) | 0.8 (≈ 0.758 µM) | 1 | 0.8 (≈ 0.758 µM) | 0.8 (≈ 0.758 µM) | 1 | 6 (≈ 5.69 µM) | – | – | 5.66 | – | –
NC[C@H]1O[C@H](O[C@H]2[C@H](O)[C@@H](O[C@H]3O[C@H](CO)[C@@H](O)[C@H](N)[C@H]3O)[C@H](NC(=O)CCCc3cn(CC(O)CN4CCN(c5cc6c(cc5F)c(=O)c(C(=O)O)cn6C5CC5)CC4)nn3)C[C@@H]2N)[C@H](O)[C@@H](O)[C@@H]1O (stereo partly specified) | – | – | – | 12 (≈ 11.9 µM) | 6 (≈ 5.95 µM) | 1.5 (≈ 1.49 µM) | 24 (≈ 23.8 µM) | – | – | – | – | – | – | – | – | – | – | – | –
NC[C@H]1O[C@H](O[C@H]2[C@H](O)[C@@H](O[C@H]3O[C@H](CO)[C@@H](O)[C@H](N)[C@H]3O)[C@H](NC(=O)CCc3cn(CCN4CCN(c5cc6c(cc5F)c(=O)c(C(=O)O)cn6C5CC5)CC4)nn3)C[C@@H]2N)[C@H](O)[C@@H](O)[C@@H]1O | 2 | 24 (≈ 24.9 µM) | 0.75 (≈ 0.777 µM) | 6 (≈ 6.22 µM) | 3 (≈ 3.11 µM) | 6 (≈ 6.22 µM) | 18 (≈ 18.7 µM) | 0.8 (≈ 0.829 µM) | 0.4 (≈ 0.415 µM) | 2 | 0.4 (≈ 0.415 µM) | 0.6 (≈ 0.622 µM) | 3 | 24 (≈ 24.9 µM) | 18 (≈ 18.7 µM) | 1 | 4.72 | 5.00 | < 4.00
NC[C@H]1O[C@H](O[C@H]2[C@H](O)[C@@H](O[C@H]3O[C@H](CO)[C@@H](O)[C@H](N)[C@H]3O)[C@H](NC(=O)CCc3cn(Cc4cccc(CN5CCN(c6cc7c(cc6F)c(=O)c(C(=O)O)cn7C6CC6)CC5)c4)nn3)C[C@@H]2N)[C@H](O)[C@@H](O)[C@@H]1O | 2 | 48 (≈ 46.1 µM) | 1.5 (≈ 1.44 µM) | 24 (≈ 23.1 µM) | 18 (≈ 17.3 µM) | 9 (≈ 8.64 µM) | 18 (≈ 17.3 µM) | 0.8 (≈ 0.768 µM) | 1.5 (≈ 1.44 µM) | 2 | 1.5 (≈ 1.44 µM) | 1.5 (≈ 1.44 µM) | 2 | 12 (≈ 11.5 µM) | 24 (≈ 23.1 µM) | 2 | – | – | –
NC[C@H]1O[C@H](O[C@H]2[C@H](O)[C@@H](O[C@H]3O[C@H](CO)[C@@H](O)[C@H](N)[C@H]3O)[C@H](NCc3cn(Cc4cccc(CN5CCN(c6cc7c(cc6F)c(=O)c(C(=O)O)cn7C6CC6)CC5)c4)nn3)C[C@@H]2N)[C@H](O)[C@@H](O)[C@@H]1O | 1 | 36 (≈ 36 µM) | 1.5 (≈ 1.5 µM) | 36 (≈ 36 µM) | 24 (≈ 24 µM) | 12 (≈ 12 µM) | 18 (≈ 18 µM) | 1.5 (≈ 1.5 µM) | 0.8 (≈ 0.801 µM) | 1 | 0.8 (≈ 0.801 µM) | 0.8 (≈ 0.801 µM) | 1 | 12 (≈ 12 µM) | 24 (≈ 24 µM) | 2 | – | – | –
